Test results published in US20230159546A1, “NOVEL SPIROPYRROLIDINE DERIVED ANTIVIRAL AGENTS” (Enanta Pharmaceuticals, Inc., priority 2021, published 2023).
Like-named read-outs stand apart in the source and are kept apart here.

Assays:
SARS-CoV-2 3CL-protease = SARS-CoV-2 3CL-protease (Severe acute respiratory syndrome coronavirus 2, UniProt P0DTD1); experiment: SARS-CoV-2 3C-like (3CL) protease fluorescence assay (FRET); assay type: biochemical; details: recombinant SARS-CoV-2 3CL-protease 10 nM, 30 min preincubation at RT, duplicate; read-out: FRET IC50
[1] = tested on: 229E human corona virus (hCoV); experiment: 229E live virus assay (CPE, ATPlite readout, MRC-5 cells); assay type: cell-based, hCoV-229E; details: Human coronavirus 229E, MRC5, 144 h, read-out: 229E EC50
[2] = MRC-5 cells, MOI 0.05, 6 days at 34° C., ATPlite, duplicate

Compound	IC50 (SARS-CoV-2 3CL-protease)	EC50 [1, 2]	EC50 [1]
CC(C)C[C@@H](C(=O)Nc1cc(F)cc(F)c1)C(=O)N1C[C@]2(C[C@H]1C#N)C(=O)Nc1ccccc12 (single isomer, unassigned) [Example 11]	> 1 µM	> 1 µM	–
CC(C)C[C@H](C(=O)Nc1cc(F)cc(F)c1)C(=O)N1C[C@]2(C[C@H]1C#N)C(=O)Nc1ccccc12 (single isomer, unassigned) [Example 12]	> 1 µM	> 1 µM	–
CC(C)CC(C(=O)Nc1ccccc1)C(=O)N1C[C@]2(C[C@H]1C#N)C(=O)Nc1ccccc12 (some centres unmarked) [Example 1]	> 1 µM	–	> 1 µM
CC(C)CC(C(=O)N(C)c1ccccc1)C(=O)N1C[C@]2(C[C@H]1C#N)C(=O)Nc1ccccc12 (some centres unmarked) [Example 2]	> 1 µM	> 1 µM	–
CC(C)CC(C(=O)NC1CC1)C(=O)N1C[C@]2(C[C@H]1C#N)C(=O)Nc1ccccc12 (some centres unmarked) [Example 3]	> 1 µM	0.1 to 1 µM	–
CC(C)CC(C(=O)Nc1cc2ccccc2[nH]1)C(=O)N1C[C@]2(C[C@H]1C#N)C(=O)Nc1ccccc12 (some centres unmarked) [Example 4]	> 1 µM	> 1 µM	–
CC(C)CC(C(=O)Nc1ccc2ccccc2c1)C(=O)N1C[C@]2(C[C@H]1C#N)C(=O)Nc1ccccc12 (some centres unmarked) [Example 5]	> 1 µM	0.1 to 1 µM	–
CC(C)CC(C(=O)Nc1cc(F)ccc1F)C(=O)N1C[C@]2(C[C@H]1C#N)C(=O)Nc1ccccc12 (some centres unmarked) [Example 6]	> 1 µM	0.1 to 1 µM	–
CC(C)CC(C(=O)Nc1cc(F)cc(F)c1)C(=O)N1C[C@]2(C[C@H]1C#N)C(=O)Nc1ccccc12 (some centres unmarked) [Example 7]	> 1 µM	0.1 to 1 µM	–
CC(C)CC(C(=O)Nc1ccc(F)cc1F)C(=O)N1C[C@]2(C[C@H]1C#N)C(=O)Nc1ccccc12 (some centres unmarked) [Example 8]	> 1 µM	> 1 µM	–
CC(C)CC(C(=O)Nc1ccc(F)cc1Cl)C(=O)N1C[C@]2(C[C@H]1C#N)C(=O)Nc1ccccc12 (some centres unmarked) [Example 9]	> 1 µM	> 1 µM	–
CC(C)CC(C(=O)Nc1c(F)cccc1Cl)C(=O)N1C[C@]2(C[C@H]1C#N)C(=O)Nc1ccccc12 (some centres unmarked) [Example 10]	> 1 µM	> 1 µM	–
CC(C)CC(C(=O)Nc1cccc(-c2ccccc2)c1)C(=O)N1C[C@]2(C[C@H]1C#N)C(=O)Nc1ccccc12 (some centres unmarked) [Example 13]	> 1 µM	> 1 µM	–
CC(C)CC(C(=O)Nc1ccc(-c2ccccc2)cc1)C(=O)N1C[C@]2(C[C@H]1C#N)C(=O)Nc1ccccc12 (some centres unmarked) [Example 14]	> 1 µM	> 1 µM	–
CC(C(=O)Nc1ccccc1)C(=O)N1C[C@]2(C[C@H]1C#N)C(=O)Nc1ccccc12 (some centres unmarked) [Example 15]	> 1 µM	> 1 µM	–
CC(C(=O)N(C)c1ccccc1)C(=O)N1C[C@]2(C[C@H]1C#N)C(=O)Nc1ccccc12 (some centres unmarked) [Example 16]	> 1 µM	0.1 to 1 µM	–

Compound	IC50 (SARS-CoV-2 3CL-protease)	EC50 [1, 2]	EC50 [1]
CC(C(=O)Nc1cc(F)cc(F)c1)C(=O)N1C[C@]2(C[C@H]1C#N)C(=O)Nc1ccccc12 (some centres unmarked) [Example 17]	> 1 µM	> 1 µM	–
CC(C)CC(F)(C(=O)Nc1ccccc1)C(=O)N1C[C@]2(C[C@H]1C#N)C(=O)Nc1ccccc12 (some centres unmarked) [Example 18]	> 1 µM	> 1 µM	–
CC(C)CC(F)(C(=O)N(C)c1ccccc1)C(=O)N1C[C@]2(C[C@H]1C#N)C(=O)Nc1ccccc12 (some centres unmarked) [Example 19]	> 1 µM	> 1 µM	–
CC(C)CC(F)(C(=O)Nc1cc(F)cc(F)c1)C(=O)N1C[C@]2(C[C@H]1C#N)C(=O)Nc1ccccc12 (some centres unmarked) [Example 20]	> 1 µM	> 1 µM	–
N#C[C@@H]1C[C@@]2(CN1C(=O)C(Cc1ccccc1)C(=O)Nc1ccccc1)C(=O)Nc1ccccc12 (some centres unmarked) [Example 21]	0.1 to 1 µM	> 1 µM	–
CN(C(=O)C(Cc1ccccc1)C(=O)N1C[C@]2(C[C@H]1C#N)C(=O)Nc1ccccc12)c1ccccc1 (some centres unmarked) [Example 22]	> 1 µM	> 1 µM	–
N#C[C@@H]1C[C@@]2(CN1C(=O)C(Cc1ccccc1)C(=O)Nc1cc(F)cc(F)c1)C(=O)Nc1ccccc12 (some centres unmarked) [Example 23]	0.1 to 1 µM	> 1 µM	–
N#C[C@@H]1C[C@@]2(CN1C(=O)C(Cc1ccccc1)C(=O)Nc1ccc3ccccc3c1)C(=O)Nc1ccccc12 (some centres unmarked) [Example 24]	0.1 to 1 µM	> 1 µM	–
N#C[C@@H]1C[C@@]2(CN1C(=O)[C@@H](Cc1ccccc1)C(=O)Nc1cc(F)cc(F)c1)C(=O)Nc1ccccc12 [Example 25]	0.1 to 1 µM	> 1 µM	–
N#C[C@@H]1C[C@@]2(CN1C(=O)C(=O)N[C@H]1CC[C@@H](NC(=O)c3ccccc3)CC1)C(=O)Nc1ccccc12 [Example 151]	> 1 µM	–	–
CC(C)(C)OC(=O)N[C@H]1CC[C@@H](NC(=O)C(=O)N2C[C@]3(C[C@H]2C#N)C(=O)Nc2ccccc23)C1 [Example 152]	> 1 µM	–	–
CC(C)(C)OC(=O)N[C@H]1CCC[C@@H]1NC(=O)C(=O)N1C[C@]2(C[C@H]1C#N)C(=O)Nc1ccccc12 [Example 153]	> 1 µM	–	–
N#C[C@@H]1C[C@@]2(CN1C(=O)C(=O)NCC1CCCCC1)C(=O)Nc1ccccc12 [Example 154]	0.1 to 1 µM	–	–
N#C[C@@H]1C[C@@]2(CN1C(=O)C(=O)NCCC1CCCCC1)C(=O)Nc1ccccc12 [Example 155]	0.1 to 1 µM	–	–
CCCCCCNC(=O)C(=O)N1C[C@]2(C[C@H]1C#N)C(=O)Nc1ccccc12 [Example 156]	0.1 to 1 µM	–	–
